Experiment: MTT assay of viability and metabolic activity of ex vivo human skin explants after topical application
Assay type: cell-based
Details: ex vivo human skin explants (5 mm); ex vivo human skin 5 mm explants, 48 hours post treatment, 37° C., compared to the untreated skin control, n=3
Method: Sample 1 was tested to determine its toxicity and metabolic properties in comparison to a control and three commercial cleaning agents (irritants)— “SDS” (sodium dodecyl sulfate), Triton™ X-100, and Tween® 20. Human skin was obtained via post-surgical elective surgery under IRB protocol and prepared within 2 hours of surgery as 5 mm explants. The compositions were applied to the surface of the epidermis and incubated for 24 hours and 48 hours at 37° C. At each time point, explants were assessed for viability and metabolic activity via a MTT assay (n=3; mean+/−SEM), a colorimetric assay for assessing cell metabolic activity. […] The metabolic activity (viability) of tissues treated with Sample 1 remained above 50% at 48 hours post treatment compared to the untreated skin control, while those treated with Trition ° X-100 and SDS were <10% and are illustrated in the graph below that plots percent viability and time.

## CCCCCCCCCCCCOS(=O)(=O)[O-].[Na+] [SDS, sodium dodecyl sulfate]
  viability at 48 h: < 10%

— patent US20240148762A1, “TOPICAL COMPOSITION CONTAINING CANNABINOIDS” (TF Holdings LLC, priority 2022, published 2024)
